How the values were obtained:
Type in all cases: binding
[1] = target: HLA A*3001 (Homo sapiens, UniProt P04439, D140H/D185E/E176W/F33S/G80R/H175R/K168Q/R138E/R41S); assay: biochemical
[2] = target: H-2 D^d (Mus musculus, UniProt P01900)
[3] = target: HLA B*5101 (Homo sapiens, UniProt P01889, A329T/A93T/A95T/C349S/D138N/D201E/D98Y/E187L/E204Q/E69T/G107R/I218V/K202T/L105A/L119W/N104I/Q94N/R106L/R155S/R180L/S101N/S121T/S35A/S48A/V306I/V36M/Y195H/Y91F)
[4] = target: HLA B*1503 (Homo sapiens, UniProt P01889, A329T/A93T/A95T/C349S/D201E/D98Y/E187L/E204Q/K202T/N87E/Q94N/R155S/R180L/S121R/S35A/V306I/V36M/Y140S/Y91S); assay: biochemical
[5] = target: HLA A*6802 (Homo sapiens, UniProt P04439, A269V/D140Y/D185E/E176V/E277Q/E87N/F33Y/G231S/I121R/I166T/I218V/L180W/L300P/L318F/N151K/P208A/P217A/Q86R/R138H/R169H/S129P/T345S/V36M)
[6] = target: HLA A*3201 (Homo sapiens, UniProt P04439, A270S/D101S/D185E/E176V/E277Q/F133L/G103R/G107R/G231S/H175R/I121M/I218V/I322F/K168Q/L105A/L300P/L318F/M331R/P208A/P217A/Q94H/R106L/R138Q/S129P/T104I/T323A/T345S/V100E/V321M/V358M); assay: biochemical
[7] = target: HLA B*5802 (Homo sapiens, UniProt P01889, A329T/C349S/D201E/D98Y/E176V/E187L/E204Q/E69T/G107R/I218V/I90N/K202T/L105A/N104I/N87E/Q89R/Q94S/R106L/R155S/R180L/R86G/S101N/S121W/S35A/S48A/V127L/V306I/V36M/Y140S/Y91M)
[8] = target: HLA B*3501 (Homo sapiens, UniProt P01889, A329T/A93T/A95T/C349S/D201E/D98Y/E176V/E187L/E204Q/E69T/I218V/K202T/L119I/Q94N/R155S/R180L/S121R/S35A/S48A/T118I/V127L/V306I/V36M/Y140S/Y91F)
[9] = target: HLA B*5301 (Homo sapiens, UniProt P01889, A329T/A93T/A95T/C349S/D201E/D98Y/E176V/E187L/E204Q/E69T/G107R/I218V/K202T/L105A/L119I/N104I/Q94N/R106L/R155S/R180L/S101N/S121R/S35A/S48A/T118I/V127L/V306I/V36M/Y140S/Y91F)
[10] = target: H-2 K^d (Mus musculus, UniProt P01902)
Chain of H-2 K^d (P01887 21-119): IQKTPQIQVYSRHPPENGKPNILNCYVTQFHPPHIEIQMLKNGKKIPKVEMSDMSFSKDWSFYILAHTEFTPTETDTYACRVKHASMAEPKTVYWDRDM
Chain of H-2 K^d (P01902 22-368): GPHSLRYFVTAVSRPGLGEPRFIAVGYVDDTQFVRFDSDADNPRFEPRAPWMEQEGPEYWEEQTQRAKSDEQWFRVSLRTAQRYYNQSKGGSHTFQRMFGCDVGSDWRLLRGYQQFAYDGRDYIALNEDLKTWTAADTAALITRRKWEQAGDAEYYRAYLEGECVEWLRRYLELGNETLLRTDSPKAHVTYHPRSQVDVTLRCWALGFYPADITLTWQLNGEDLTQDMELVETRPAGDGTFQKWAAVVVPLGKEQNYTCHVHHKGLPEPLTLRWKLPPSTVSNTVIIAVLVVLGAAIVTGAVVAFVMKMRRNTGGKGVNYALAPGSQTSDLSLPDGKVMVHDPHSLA

[11] = target: H-2 D^b (Mus musculus, UniProt P01899)
Chain of H-2 D^b (P01887 21-119): as the sequence (P01887 21-119) above
Chain of H-2 D^b (P01899 25-362): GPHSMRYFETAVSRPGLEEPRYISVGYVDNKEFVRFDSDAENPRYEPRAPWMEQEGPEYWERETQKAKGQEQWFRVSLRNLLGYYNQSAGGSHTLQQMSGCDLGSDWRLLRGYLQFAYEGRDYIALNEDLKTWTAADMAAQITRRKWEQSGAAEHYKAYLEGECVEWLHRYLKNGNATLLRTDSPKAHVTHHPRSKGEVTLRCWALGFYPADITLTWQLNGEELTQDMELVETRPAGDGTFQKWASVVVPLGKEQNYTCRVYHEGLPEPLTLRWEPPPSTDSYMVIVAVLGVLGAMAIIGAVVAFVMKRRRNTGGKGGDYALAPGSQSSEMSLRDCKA

[12] = target: HLA B*5401 (Homo sapiens, UniProt P01889, A329T/C349S/D138N/D201E/E176V/E187T/E204Q/E69G/I76V/K202T/L119W/R155S/R180L/S121T/S35A/S48A/V127L/V306I/V36M/Y140L)
[13] = target: HLA B*0801 (Homo sapiens, UniProt P01889, A93T/A95T/D138N/E176V/E187T/K202T/Q94N/R180D/S35A/V36M/Y33D/Y91F); assay: biochemical
[14] = target: HLA B*5801 (Homo sapiens, UniProt P01889, A329T/C349S/D201E/D98Y/E176V/E187L/E204Q/E69T/G107R/I218V/I90N/K202T/L105A/L119I/N104I/N87E/Q89R/Q94S/R106L/R155S/R180L/R86G/S101N/S121R/S35A/S48A/T118I/V127L/V306I/V36M/Y140S/Y91M)
[15] = target: HLA B*1501 (Homo sapiens, UniProt P01889, A329T/A93T/A95T/C349S/D201E/D98Y/E187L/E204Q/E69M/E70A/K202T/N87E/Q94N/R155S/R180W/S121R/S35A/S48A/V306I/V36M/Y140S/Y91S); assay: biochemical
[16] = target: H-2 K^k (Mus musculus, UniProt P04223)
Chain of H-2 K^k (P01887 21-119): as the sequence (P01887 21-119) above
Chain of H-2 K^k (P04223 22-369): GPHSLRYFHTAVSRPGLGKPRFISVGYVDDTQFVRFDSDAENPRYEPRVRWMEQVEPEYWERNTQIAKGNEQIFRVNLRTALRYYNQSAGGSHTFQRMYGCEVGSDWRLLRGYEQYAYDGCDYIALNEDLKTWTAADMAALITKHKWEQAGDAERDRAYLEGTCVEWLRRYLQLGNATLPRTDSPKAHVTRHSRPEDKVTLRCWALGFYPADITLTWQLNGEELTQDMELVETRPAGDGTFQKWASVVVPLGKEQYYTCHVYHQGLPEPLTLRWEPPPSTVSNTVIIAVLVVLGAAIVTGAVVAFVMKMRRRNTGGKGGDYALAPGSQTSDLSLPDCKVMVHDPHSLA

Chain of H-2 D^d (P01900 whole entry, looked up): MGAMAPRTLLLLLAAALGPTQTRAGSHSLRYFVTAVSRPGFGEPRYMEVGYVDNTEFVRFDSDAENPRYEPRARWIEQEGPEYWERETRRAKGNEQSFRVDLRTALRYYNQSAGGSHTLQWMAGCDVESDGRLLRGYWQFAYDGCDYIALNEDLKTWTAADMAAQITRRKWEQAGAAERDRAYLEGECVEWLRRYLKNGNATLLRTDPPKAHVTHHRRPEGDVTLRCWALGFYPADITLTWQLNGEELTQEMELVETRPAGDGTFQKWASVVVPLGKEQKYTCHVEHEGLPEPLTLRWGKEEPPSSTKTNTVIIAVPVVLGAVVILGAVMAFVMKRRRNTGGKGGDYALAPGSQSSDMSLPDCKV

Row | Sequence | Normalized average relative binding affinity(ARB) [1] | Normalized average relative binding affinity(ARB) [2] | Normalized average relative binding affinity(ARB) [3] | Normalized average relative binding affinity(ARB) [4] | Normalized average relative binding affinity(ARB) [5] | Normalized average relative binding affinity(ARB) [6] | Normalized average relative binding affinity(ARB) [7] | Normalized average relative binding affinity(ARB) [8] | Normalized average relative binding affinity(ARB) [9] | Normalized average relative binding affinity(ARB) [10] | Normalized average relative binding affinity(ARB) [11] | Normalized average relative binding affinity(ARB) [12] | Normalized average relative binding affinity(ARB) [13] | Normalized average relative binding affinity(ARB) [14] | Normalized average relative binding affinity(ARB) [15] | Normalized average relative binding affinity(ARB) [16]
1 | XXXXXXXSX [3064.0156] | 0.23 | 1.0 | 0.44 | 1.0 | 0.27 | 1.0 | 0.30 | 0.20 | 0.11 | 0.61 | 0.13 | 1.0 | 1.0 | 0.31 | 0.34 | 0.48
2 | XXXIXXXXX [3064.0068] | 0.34 | 0.79 | 1.0 | 0.26 | 0.088 | 0.15 | 0.33 | 1.0 | 0.18 | 0.22 | 0.87 | 0.16 | 0.38 | 0.23 | 0.27 | 0.39
3 | XXXXXXKXX [3064.0129] | 0.062 | 0.0067 | 0.12 | 0.091 | 0.086 | 0.030 | 0.031 | 0.073 | 0.022 | 0.023 | 0.062 | 0.089 | 0.26 | 0.037 | 0.15 | 0.15
4 | XXXXXFXXX [3064.0105] | 1.0 | 0.79 | 1.0 | 1.0 | 1.0 | 0.90 | 0.36 | 1.0 | 0.86 | 0.39 | 0.70 | 0.30 | 1.0 | 0.51 | 1.0 | 1.0
5 | XXXXXQXXX [3064.0114] | 0.21 | 0.51 | 0.39 | 0.53 | 0.085 | 0.15 | 0.46 | 0.12 | 0.13 | 0.19 | 0.55 | 0.11 | 0.031 | 0.57 | 0.21 | 0.12
6 | XXXXXRXXX [3064.0115] | 0.21 | 0.42 | 0.27 | 0.51 | 0.43 | 0.36 | 0.36 | 0.088 | 0.095 | 1.0 | 0.50 | 0.11 | 0.15 | 0.25 | 0.13 | 0.39
7 | XXXQXXXXX [3064.0074] | 0.65 | 0.49 | 0.57 | 0.83 | 0.18 | 0.32 | 0.31 | 0.088 | 0.26 | 0.42 | 0.61 | 0.093 | 0.90 | 0.46 | 0.96 | 0.63
8 | XXXXCXXXX [3064.0082] | 0.12 | 0.045 | 0.38 | 0.62 | 0.65 | 0.15 | 0.53 | 0.37 | 0.13 | 0.19 | 0.060 | 0.39 | 0.020 | 0.14 | 0.87 | 0.095

Reference: article PMC2248166, “Quantitative peptide binding motifs for 19 human and mouse MHC class I molecules derived using positional scanning combinatorial peptide libraries” (Immunome Research, 2008)
